Assay results taken from US4522813A, “Cyclic hexapeptide somatostatin analogs” (Merck & Co., Inc., priority 1983, dated 1985).

Tests used:
[1] = tested on: portal vein insulin; assay: Decrease of portal vein insulin levels in anesthetized rats; format: in vivo, rat; details: multiple or fraction of the effect of somatostatin (=1), fiducial limits in parentheses, external jugular vein, portal vein blood after 5 minutes
Description: (§1) Analogs of somatostatin were compared to somatostatin in their ability to decrease the levels of portal vein glucagon and insulin in anesthetized rats. Male Sprague-Dawley rats (Charles River CD) weighing 160-200 g were anesthetized with urethane (150 mg/100 g of body weight; Aldrich). Saline or peptides were administered via the external jugular vein. After 5 minutes, the portal vein was exposed, and blood was collected via syringe containing 3 mg of EDTA and placed in chilled tubes containing 100 μl of Trasylol (FBA Pharmaceuticals) for subsequent hormone analysis. Plasma levels of glucagon were determined by the method of Faloona and Unger, Methods of Hormone Radioimmunoassay, Jaffe and Behrman (Eds), Academic Press, New York, Vol, II, pp. 257-527 (1976), utilizing glucagon antisera 30K obtained from R. Unger (Dallas, TX). Plasma levels of insulin were determined by a modification of the procedure of Herbert et al., J. Clin. Endocrinol. Metab., 25, 1375-1384 (1965).

[2] = tested on: portal vein glucagon; assay: Decrease of portal vein glucagon levels in anesthetized rats; format: in vivo, rat; details: multiple or fraction of the effect of somatostatin (=1), fiducial limits in parentheses, external jugular vein, portal vein blood after 5 minutes
Description: as §1

[3] = tested on: pentagastrin evoked gastric secretion; assay: Inhibition of pentagastrin evoked gastric secretion in the chronic fistula dog; format: in vivo; set-up: dose or concentration left out as unconfirmed; details: infusion 0-60 min., relative to placebo trial; for Gastric Secretion & Inhibition, Acid Concentration 0-30 / Gastric Secretion & Inhibition, Vol. 0-30: interval 0-30 min; for Gastric Secretion & Inhibition, Acid Concentration 30-60 / Gastric Secretion & Inhibition, Vol. 30-60: interval 30-60 min; for Gastric Secretion & Inhibition, Acid Concentration 60-90 / Gastric Secretion & Inhibition, Vol. 60-90: interval 60-90 min; for Gastric Secretion & Inhibition, Acid Concentration 90-120 / Gastric Secretion & Inhibition, Vol. 90-120: interval 90-120 min
Description: The gastric effects of the instant cyclichexapeptide analogs of somatostatin are determined by the following procedure.
Compounds were tested for their ability to inhibit pentagastrin evoked gastric secretion in the chronic fistula dog. Female beagle dogs with a chronic gastric fistula were given pentagastrin (2.5 μg./kg./hour, i.v. from -60 to 120 min.) and gastric outputs were collected via the fistula cannula. Samples were analyzed at 30 minute intervals for volume (Ml.) and titratable acid (mEq/L) (Titration to pH 7 with 0.01N NaOH); total acid output (mEq) was calculated as the production of output volume and acid concentration. Test compounds were infused at a constant rate from 0 to 60 minutes. Data have been expressed as percent change of total acid output relative to a placebo trial in the same animals.

[4] = tested on: growth hormone release from rat pituitary cells; assay: In vitro inhibition of growth hormone release, cultured rat pituitary cells; format: cell-based; details: multiple or fraction of the effect of somatostatin (=1), fiducial limits in parentheses, 4 hours incubation
Description: The instant cyclic hexapeptide analogs of somatostatin are tested and compared with the effects of somatostatin in an in vitro test for the inhibition of growth hormone. The test is described as follows:
"Rat pituitaries were isolated according to the procedures of Vale and Grant "In vitro Pituitary Hormone Secretion Assay for Hypophysiotropic Substances" in Methods in Enzymology, Vol. XXXVII, eds. O'Malley, B. W. and Hardman, J. G. (Academic Press, Inc., New York) pp. 5-93 (1975).
After 4 days in culture, the cells were washed and incubated for 4 hours in Dulbecco-modified Eagle's medium in the presence or absence of graded doses of each analog or somatostatin. The medium was then collected for subsequent growth hormone determination by a double antibody radioimmunoassay for rat growth hormone."

Compound: Cyclo--(Pro--Phe--D-Trp--cis-AChxAla--Thr--Phe)
- Insulin Inhibition [1]: 1.4 (0.7, 2.7)
- Glucagon Inhibition [2]: 2.2 (1.1, 4.7)
- Gastric Secretion & Inhibition, Acid Concentration 0-30 [3]: 4%
- Gastric Secretion & Inhibition, Vol. 0-30 [3]: 75%
- Gastric Secretion & Inhibition, Acid Concentration 30-60 [3]: 19%
- Gastric Secretion & Inhibition, Vol. 30-60 [3]: 82%
- Gastric Secretion & Inhibition, Acid Concentration 60-90 [3]: 13%
- Gastric Secretion & Inhibition, Vol. 60-90 [3]: 20%
- Gastric Secretion & Inhibition, Acid Concentration 90-120 [3]: 5%
- Gastric Secretion & Inhibition, Vol. 90-120 [3]: 2%
- Growth Hormone Release Inhibition [4]: 0.5 (0.3, 0.6)

Compound: Cyclo--(Pro--Phe--D-Trp--t-D-AChxGly--Thr--Phe)
- Insulin Inhibition [1]: 0.07
- Glucagon Inhibition [2]: 0.07
- Growth Hormone Release Inhibition [4]: 0.11

Compound: C[C@H](N)C(=O)NCC(=O)N[C@H]1CSSC[C@@H](C(=O)O)NC(=O)[C@H](CO)NC(=O)[C@H]([C@@H](C)O)NC(=O)[C@H](Cc2ccccc2)NC(=O)[C@H]([C@@H](C)O)NC(=O)[C@H](CCCCN)NC(=O)[C@H](Cc2c[nH]c3ccccc23)NC(=O)[C@H](Cc2ccccc2)NC(=O)[C@H](Cc2ccccc2)NC(=O)[C@H](CC(N)=O)NC(=O)[C@H](CCCCN)NC1=O [Somatostatin]
- Glucagon Inhibition [2]: 1
- Gastric Secretion & Inhibition, Acid Concentration 0-30 [3]: 16%
- Gastric Secretion & Inhibition, Vol. 0-30 [3]: 85%
- Gastric Secretion & Inhibition, Acid Concentration 30-60 [3]: 77%
- Gastric Secretion & Inhibition, Vol. 30-60 [3]: 97%
- Gastric Secretion & Inhibition, Acid Concentration 60-90 [3]: 61%
- Gastric Secretion & Inhibition, Vol. 60-90 [3]: 81%
- Gastric Secretion & Inhibition, Acid Concentration 90-120 [3]: 14%
- Gastric Secretion & Inhibition, Vol. 90-120 [3]: 37%
